Where two headings read alike, the source gives them in different places.
Tests used:
[1] = molecular target: T1, Cyclin Dependent Kinase 1/Cyclin A2 (CDK1-cycA2) (Homo sapiens, UniProt P06493); experiment: CDK1-cycA2 TR-FRET (Lance) enzyme assay; assay type: biochemical; conditions: for Ki: Table O, enzymatic assay; for FS CDK1/CDK2: fold selectivity, enzymatic Ki ratio
T1 construct: purchased ProQinase 0134-0054-1
Summary of the method: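 Human CDK1/cyclin A2 pre-incubated 30 min with compound dose responses in 50 mM HEPES pH 7.5, 10 mM MgCl2, 2 mM TCEP, 0.05% BGG, 0.01% Brij 35. Reaction quenched with EDTA (15 mM final); TR-FRET readout using Eu-anti-phospho-4E-BP1, acceptor/donor ratio. Inhibition constants from Morrison equation.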

[2] = molecular target: T2, Cyclin Dependent Kinase 2/Cyclin E1 (CDK2-cycE1) (Homo sapiens, UniProt P24941); experiment: CDK2-cycE1 TR-FRET (LANCE) enzyme assay; assay type: biochemical; conditions: for FS CDK1/CDK2 / FS CDK4/CDK2: fold selectivity; for increased fold-selectivity CDK1/CDK2 over Comparator C: (+) sign after FS CDK1/CDK2; for increased fold-selectivity CDK4/CDK2 over Comparator C: (+) sign after FS CDK4/CDK2;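 as to improvement in potency against CDK2 (Ki) over Comparator C: fold lower CDK2 Ki than comparator c (Ki 0.032 µM)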
T2 construct: purchased ProQinase 0050-0055-1
Summary of the method: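 Compound dose responses pre-incubated 30 min with CDK2-cycE1 in 50 mM HEPES pH 7.5, 10 mM MgCl2, 2 mM TCEP, 0.05% BGG, 0.01% Brij 35. Reaction quenched with EDTA (15 mM final), phospho-MBP detected by Eu-anti-phospho-MBP TR-FRET (acceptor/donor ratio). Inhibition constants from Morrison equation.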

[3] = system: OVISE (JCRB1043, CCNE1-amplified); experiment: OVISE EdU incorporation cell proliferation assay (CDK2-dependent); assay type: cell-based; conditions: for IC50: cellular assay, read-out: CDK2 OVISE IC50; for FS SKOV-3/OVISE / FS p-H3/OVISE: fold selectivity; for FS p-H3/OVISE: cellular p-H3 IC50 over OVISE IC50; for increased fold-selectivity SKOV-3/OVISE over Comparator C: (+) sign after FS SKOV-3/OVISE; for improvement in CDK2 OVISE cell potency over Comparator C: Comparator C 5.5 μM
Summary of the method: (§1)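 Cells in RPMI/10% FBS dosed with compound (0.5% DMSO final) for 16 h at 37 °C, 5% CO2, then EdU 0.5 μM final for 8 h before fixation and imaging. IC50 from 4-parameter logistic fit of EdU-positive cell fraction versus dose.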

[4] = molecular target: T3, Cyclin Dependent Kinase 4/Cyclin D3 (CDK4-cycD3) (Homo sapiens, UniProt P11802); experiment: CDK4-cycD3 TR-FRET (LANCE) enzyme assay; assay type: biochemical; conditions: for Ki: Table O, enzymatic assay; for FS CDK4/CDK2: fold selectivity, enzymatic Ki ratio
T3 construct: purchased Carna Biosciences 04-105
Summary of the method: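 Compound dose responses pre-incubated 30 min with enzyme mix in 50 mM HEPES pH 7.5, 10 mM MgCl2, 2 mM TCEP, 0.05% BGG, 0.01% Brij 35. Reaction quenched with EDTA (15 mM final); Eu-anti-phospho-4E-BP1 TR-FRET detection, acceptor/donor ratio. Ki derived by Morrison equation.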

HCT116 cells = experiment: p-H3 HCT-116 mitotic release cell proliferation assay (cellular CDK1); assay type: cell-based; conditions: Homo sapiens, HCT-116; Table O, cellular assay; read-out: CDK1 p-H3 IC50
Summary of the method: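 HCT116 cells arrested 16 h with 500 nM nocodazole, then exposed to compound for 4 h at 37 °C (0.1% DMSO). Lysates read by HTRF/FRET with donor and acceptor phospho-Histone H3 (Ser10) antibodies, ≥2 h at room temperature; CDK1 inhibition seen as loss of p-H3 on mitotic release.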

SKOV-3 (ATCC HTB-77) = experiment: SKOV-3 EdU incorporation cell proliferation assay (CDK4/6-dependent); assay type: cell-based; conditions: for IC50: Homo sapiens, cellular assay, read-out: CDK4/6 SKOV-3 IC50; for FS SKOV-3/OVISE: fold selectivity, cellular IC50 ratio
Summary of the method: as §1

[5] = Table O, enzymatic assay, read-out: CDK2 Ki
[6] = Table O, enzymatic CDK1 Ki over CDK2 Ki
[7] = Table O, enzymatic CDK4 Ki over CDK2 Ki
[8] = Table Q, enzymatic assay, read-out: CDK2 Ki
[9] = read-out: CDK2 activity / potency (enzymatic assay)
[10] = Table O, cellular SKOV-3 IC50 over OVISE IC50
[11] = Table Q, in brackets after OVISE IC50

T1 sequence (P06493 whole entry): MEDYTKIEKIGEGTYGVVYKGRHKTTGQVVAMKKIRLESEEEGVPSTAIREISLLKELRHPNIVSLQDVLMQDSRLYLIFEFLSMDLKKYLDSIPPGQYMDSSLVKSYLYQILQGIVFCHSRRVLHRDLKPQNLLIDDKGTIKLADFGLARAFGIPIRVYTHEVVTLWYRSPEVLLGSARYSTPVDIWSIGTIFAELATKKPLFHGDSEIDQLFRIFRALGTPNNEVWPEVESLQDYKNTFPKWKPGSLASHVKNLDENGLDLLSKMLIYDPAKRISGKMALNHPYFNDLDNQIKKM
T1 sequence (P20248 whole entry partner): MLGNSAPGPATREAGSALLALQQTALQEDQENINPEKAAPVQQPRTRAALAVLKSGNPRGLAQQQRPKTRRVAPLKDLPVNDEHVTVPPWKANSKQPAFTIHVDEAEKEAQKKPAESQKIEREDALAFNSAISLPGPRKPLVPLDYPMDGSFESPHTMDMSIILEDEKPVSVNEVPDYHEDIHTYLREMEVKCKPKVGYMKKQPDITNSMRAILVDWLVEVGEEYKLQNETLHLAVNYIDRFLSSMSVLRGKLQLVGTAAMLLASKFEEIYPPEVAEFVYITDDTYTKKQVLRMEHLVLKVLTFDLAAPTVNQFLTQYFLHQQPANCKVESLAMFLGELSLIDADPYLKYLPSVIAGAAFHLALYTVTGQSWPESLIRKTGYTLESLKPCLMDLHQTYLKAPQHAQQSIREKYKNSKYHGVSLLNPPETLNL
T3 sequence (P11802 whole entry): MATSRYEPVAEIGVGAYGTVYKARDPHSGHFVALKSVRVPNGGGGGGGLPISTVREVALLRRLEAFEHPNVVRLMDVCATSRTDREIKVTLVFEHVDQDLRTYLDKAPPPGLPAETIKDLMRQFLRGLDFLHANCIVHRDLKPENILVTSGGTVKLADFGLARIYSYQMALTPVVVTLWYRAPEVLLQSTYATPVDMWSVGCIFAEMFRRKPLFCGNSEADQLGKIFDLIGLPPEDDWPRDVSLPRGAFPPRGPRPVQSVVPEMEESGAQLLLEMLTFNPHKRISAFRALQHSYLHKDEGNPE
T3 sequence (P30281 whole entry partner): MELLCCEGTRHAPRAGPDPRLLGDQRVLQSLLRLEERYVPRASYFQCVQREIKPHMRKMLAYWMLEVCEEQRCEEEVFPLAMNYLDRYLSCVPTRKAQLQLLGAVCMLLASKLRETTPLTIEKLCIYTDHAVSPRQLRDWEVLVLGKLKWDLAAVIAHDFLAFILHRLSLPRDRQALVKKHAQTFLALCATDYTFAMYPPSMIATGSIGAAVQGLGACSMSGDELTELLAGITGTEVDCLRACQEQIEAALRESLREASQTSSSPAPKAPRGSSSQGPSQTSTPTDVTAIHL

Structure (SMILES) | Ki [1] | Ki [2, 5] | FS CDK1/CDK2 [2, 6] | FS CDK4/CDK2 [2, 7] | Ki [4] | IC50 (HCT116 cells) | IC50 (SKOV-3 (ATCC HTB-77); SK-OV-3, Table O) | increased fold-selectivity CDK1/CDK2 over Comparator C ([2]; Table Q) | increased fold-selectivity CDK4/CDK2 over Comparator C ([2]; Table Q) | Ki [2, 8] | FS CDK1/CDK2 ([2]; Table Q, enzymatic) | FS CDK4/CDK2 ([2]; Table Q, enzymatic) | Ki [2, 9] | IC50 ([3]; Table O) | FS SKOV-3/OVISE [3, 10] | FS p-H3/OVISE ([3]; Table O) | increased fold-selectivity SKOV-3/OVISE over Comparator C ([3]; Table Q) | FS SKOV-3/OVISE ([3]; Table Q, cellular) | improvement in CDK2 OVISE cell potency over Comparator C [3, 11] | IC50 (SKOV-3 (ATCC HTB-77); SK-OV-3, Table Q) | also measured
Cc1nccnc1Nc1cc([C@H]2CC[C@@H](OC(=O)NC(C)C)C2)[nH]n1 [Example 2T, (1R,3S)-3-(3-((3-methylpyrazin-2-yl)amino)-1H-pyrazol-5-yl)cyclopentyl isopropylcarbamate] | 0.064 µM | 0.00086 µM | 74 | 170 | 0.15 µM | 0.12 µM | 1.5 µM | (+) (The (+) sign in Table Q signifies desirable increased fold-selectivity of the exemplary compounds over Comparator C) | (+) (The (+) sign in Table Q signifies desirable increased fold-selectivity of the exemplary compounds over Comparator C) | 0.00086 µM | 74 | 170 | ≤ 0.001 µM | 0.052 µM | 29 | 2.3 | (+) (The (+) sign in Table Q signifies desirable increased fold-selectivity of the exemplary compounds over Comparator C) | 29 | 106 fold | 1.5 µM | improvement in potency against CDK2 (Ki) over Comparator C [2]: 37 fold
Cc1cnc(Nc2cc([C@H]3CC[C@@H](OC(=O)NC(C)C)C3)[nH]n2)c(C)n1 [Example 2V, (1R,3S)-3-(3-((3,5-dimethylpyrazin-2-yl)amino)-1H-pyrazol-5-y1)cyclopentyl isopropylcarbamate] | 0.036 µM | 0.00092 µM | 39 | 280 | 0.26 µM | 0.097 µM | 2.5 µM | (+) (The (+) sign in Table Q signifies desirable increased fold-selectivity of the exemplary compounds over Comparator C) | (+) (The (+) sign in Table Q signifies desirable increased fold-selectivity of the exemplary compounds over Comparator C) | 0.00092 µM | 39 | 280 | ≤ 0.001 µM | 0.11 µM | 23 | 0.88 | (+) (The (+) sign in Table Q signifies desirable increased fold-selectivity of the exemplary compounds over Comparator C) | 23 | 50 fold | 2.5 µM | improvement in potency against CDK2 (Ki) over Comparator C [2]: 35 fold
Cc1nc(C#N)ccc1Nc1cc([C@H]2CC[C@@H](OC(=O)NC(C)C)C2)[nH]n1 [Example 2Z, (1R,3S)-3-(3-((6-cyano-2-methylpyridin-3-yl)amino)-1H-pyrazol-5-yl)cyclopentyl isopropylcarbamate] | 0.55 µM | 0.005 µM | 110 | 260 | 1.3 µM | 0.41 µM | 18 µM | (+) (The (+) sign in Table Q signifies desirable increased fold-selectivity of the exemplary compounds over Comparator C) | (+) (The (+) sign in Table Q signifies desirable increased fold-selectivity of the exemplary compounds over Comparator C) | 0.005 µM | 110 | 260 | – | 0.25 µM | 72 | 1.6 | (+) (The (+) sign in Table Q signifies desirable increased fold-selectivity of the exemplary compounds over Comparator C) | 72 | 22 fold | 18 µM | improvement in potency against CDK2 (Ki) over Comparator C ([2]; Table Q, in brackets after CDK2 Ki, Comparator C 0.032 μM): 6.4 fold
O=C(NC12CC(C1)C2)O[C@@H]1CC[C@H](c2cc(Nc3cccnn3)n[nH]2)C1 [Example 3, (1R,3S)-3-(3-(pyridazin-3-ylamino)-1H-pyrazol-5-yl)cyclopentyl bicyclo[1.1.1]pentan-1-ylcarbamate] | 0.047 µM | 0.0018 µM | 26 | 61 | 0.11 µM | 0.073 µM | 2.3 µM | – | – | – | – | – | – | 0.15 µM | 15 | 0.49 | – | – | – | – | –
Cc1ncccc1Nc1cc([C@H]2CC[C@@H](OC(=O)NC(C)(C)C)C2)[nH]n1 [Example 4, (1R,3S)-3-(3-((2-methylpyridin-3-yl)amino)-1H-pyrazol-5-yl)cyclopentyl tert-butylcarbamate] | 0.025 µM | 0.00022 µM | 110 | 160 | 0.034 µM | 0.03 µM | 0.92 µM | – | – | – | – | – | ≤ 0.001 µM | 0.02 µM | 46 | 1.5 | – | – | – | – | FS CDK1/CDK2 increased over Comparator D, (+) sign ([1]; Table R): (+); FS CDK1/CDK2 ([1]; Table R): 110; FS CDK1/CDK2 increased over Comparator E, (+) sign ([1]; Table S): (+); FS CDK1/CDK2 ([1]; Table S): 110; Ki ([2]; Table R, enzymatic assay, read-out: CDK2 Ki): 0.00022 µM; CDK2 Ki fold change in potency versus Comparator D ([2]; Table R, in brackets after CDK2 Ki): 12.3 fold; Ki ([2]; Table S, enzymatic assay, read-out: CDK2 Ki): 0.00022 µM; CDK2 Ki fold change in potency versus Comparator E ([2]; Table S, in brackets after CDK2 Ki): 2.4 fold; CDK2 cell potency compared with Comparator E ([3]; CDK2 OVISE cellular assay data): more potent CDK2 cell inhibitors compared to Comparator E; CDK2 OVISE IC50 fold change in potency versus Comparator D ([3]; Table R, in brackets after OVISE IC50): 190 fold; CDK2 OVISE IC50 fold change in potency versus Comparator E ([3]; Table S, in brackets after OVISE IC50): 8.5 fold; FS CDK4/CDK2 increased over Comparator D, (+) sign ([4]; Table R): (+); FS CDK4/CDK2 ([4]; Table R): 160; FS CDK4/CDK2 increased over Comparator E, (+) sign ([4]; Table S): (+); FS CDK4/CDK2 ([4]; Table S): 160; selectivity for CDK2 over CDK4 compared with Comparator E (SKOV-3 (ATCC HTB-77); SKOV-3/OVISE fold-selectivity cellular assay data): increase in selectivity for CDK2 over CDK4; FS SKOV-3/OVISE increased over Comparator D, (+) sign (SKOV-3 (ATCC HTB-77); Table R): (+); FS SKOV-3/OVISE (SKOV-3 (ATCC HTB-77); Table R): 46; FS SKOV-3/OVISE increased over Comparator E, (+) sign (SKOV-3 (ATCC HTB-77); Table S): (+); FS SKOV-3/OVISE (SKOV-3 (ATCC HTB-77); Table S): 46

Further lines, with some results ahead:

Ki [1] | Ki [2, 5] | FS CDK1/CDK2 [2, 6] | FS CDK4/CDK2 [2, 7] | Ki [4] | IC50 (HCT116 cells) | IC50 (SKOV-3 (ATCC HTB-77); SK-OV-3, Table O) | Structure (SMILES) | increased fold-selectivity CDK1/CDK2 over Comparator C ([2]; Table Q) | increased fold-selectivity CDK4/CDK2 over Comparator C ([2]; Table Q) | Ki [2, 8] | FS CDK1/CDK2 ([2]; Table Q, enzymatic) | FS CDK4/CDK2 ([2]; Table Q, enzymatic) | Ki [2, 9] | IC50 ([3]; Table O) | FS SKOV-3/OVISE [3, 10] | FS p-H3/OVISE ([3]; Table O) | increased fold-selectivity SKOV-3/OVISE over Comparator C ([3]; Table Q) | FS SKOV-3/OVISE ([3]; Table Q, cellular) | improvement in CDK2 OVISE cell potency over Comparator C [3, 11] | IC50 (SKOV-3 (ATCC HTB-77); SK-OV-3, Table Q) | also measured
0.072 µM | 0.0025 µM | 29 | 60 | 0.15 µM | 0.16 µM | 2.7 µM | CC1(NC(=O)O[C@@H]2CC[C@H](c3cc(Nc4cccnn4)n[nH]3)C2)CC1 [Example 3A, (1R,3S)-3-(3-(pyridazin-3-ylamino)-1H-pyrazol-5-yl)cyclopentyl (1-methylcyclopropyl)carbamate] | – | – | – | – | – | – | 0.13 µM | 21 | 1.2 | – | – | – | – | –
0.28 µM | 0.01 µM | 28 | 72 | 0.72 µM | 1.4 µM | 13 µM | CN1CCC(NC(=O)O[C@@H]2CC[C@H](c3cc(Nc4cccnn4)n[nH]3)C2)CC1 [Example 3E, (1R,3S)-3-(3-(pyridazin-3-ylamino)-1H-pyrazol-5-yl)cyclopentyl (1-methylpiperidin-4-yl)carbamate] | – | – | – | – | – | – | 0.42 µM | 31 | 3.3 | – | – | – | – | –
0.11 µM | 0.004 µM | 27 | 6 | 0.024 µM | 0.35 µM | 1.3 µM | CC1(NC(=O)O[C@@H]2CC[C@H](c3cc(Nc4cccnn4)n[nH]3)C2)CNC1 [Example 3F, (1R,3S)-3-(3-(pyridazin-3-ylamino)-1H-pyrazol-5-yl)cyclopentyl (3-methylazetidin-3-yl)carbamate] | – | – | – | – | – | – | 0.32 µM | 4.1 | 1.1 | – | – | – | – | –
